{"source": "paper PMC5218480", "about": "(PLoS ONE, 2017)", "system": "MV-4-11 cells", "assay": "Gene expression microarray analysis (Affymetrix PrimeView) and GSEA", "type": "cell-based, human", "set-up": "RFU PODN (11730768_x_at) / Fold change /veh PODN (11730768_x_at) / RFU LINC00158 (11744669_a_at) / Fold change /veh LINC00158 (11744669_a_at) / RFU DUSP10 (11751237_a_at) / Fold change /veh DUSP10 (11751237_a_at) / RFU ID3 (11757404_x_at) / Fold change /veh ID3 (11757404_x_at) / RFU PLEKHG5 (11737974_s_at) / Fold change /veh PLEKHG5 (11737974_s_at) / RFU LRRC4B (11730491_at) / Fold change /veh LRRC4B (11730491_at) / RFU GIMAP4 (11747438_a_at) / Fold change /veh GIMAP4 (11747438_a_at) / RFU KRT8 (11758183_x_at) / Fold change /veh KRT8 (11758183_x_at) / RFU CNN1 (11734310_a_at) / Fold change /veh CNN1 (11734310_a_at) / RFU VPS37D (11726825_at) / Fold change /veh VPS37D (11726825_at) / RFU C10orf10 (11716522_x_at) / Fold change /veh C10orf10 (11716522_x_at) / RFU KIR2DL2 /// KIR2DL4 /// KIR2DL5A /// KIR2DL5B /// KIR2DS1 /// KIR2DS2 /// KIR2DS3 /// KIR2DS4 /// KIR3DL3 /// KIR3DL3 /// KIR3DS1 (11738374_at) / Fold change /veh KIR2DL2 /// KIR2DL4 /// KIR2DL5A /// KIR2DL5B /// KIR2DS1 /// KIR2DS2 /// KIR2DS3 /// KIR2DS4 /// KIR3DL3 /// KIR3DL3 /// KIR3DS1 (11738374_at) / RFU C1QL1 (11718748_at) / Fold change /veh C1QL1 (11718748_at) / RFU TMPRSS4 (11747572_a_at) / Fold change /veh TMPRSS4 (11747572_a_at) / RFU HAMP (11756126_x_at) / Fold change /veh HAMP (11756126_x_at) / RFU RNFT2 (11725882_a_at) / Fold change /veh RNFT2 (11725882_a_at) / RFU NR4A2 (11747474_a_at) / Fold change /veh NR4A2 (11747474_a_at) / RFU ABCC12 (11746883_a_at) / Fold change /veh ABCC12 (11746883_a_at) / RFU TMEM136 (11760407_x_at) / Fold change /veh TMEM136 (11760407_x_at) / RFU CLDN22 /// WWC2 (11732394_at) / Fold change /veh CLDN22 /// WWC2 (11732394_at) / RFU HLA-DPB1 (11760878_x_at) / Fold change /veh HLA-DPB1 (11760878_x_at) / RFU SPINT1 (11716480_a_at) / Fold change /veh SPINT1 (11716480_a_at) / RFU GAP43 (11754022_s_at) / Fold change /veh GAP43 (11754022_s_at) / RFU A4GNT (11735810_at) / Fold change /veh A4GNT (11735810_at) / RFU PRB3 (11715151_x_at) / Fold change /veh PRB3 (11715151_x_at) / RFU TUBB4B (11761932_at) / Fold change /veh TUBB4B (11761932_at) / RFU CAPN14 (11732068_a_at) / Fold change /veh CAPN14 (11732068_a_at) / RFU TMCC2 (11721928_a_at) / Fold change /veh TMCC2 (11721928_a_at) / RFU IRGQ (11745062_a_at) / Fold change /veh IRGQ (11745062_a_at) / RFU FAM174B (11720279_a_at) / Fold change /veh FAM174B (11720279_a_at) / RFU TMPRSS4 (11748680_a_at) / Fold change /veh TMPRSS4 (11748680_a_at) / RFU FAM212B (11763350_a_at) / Fold change /veh FAM212B (11763350_a_at) / RFU PLEKHG5 (11743358_a_at) / Fold change /veh PLEKHG5 (11743358_a_at) / RFU ZSCAN30 (11745921_a_at) / Fold change /veh ZSCAN30 (11745921_a_at) / RFU CMKLR1 (11741424_a_at) / Fold change /veh CMKLR1 (11741424_a_at) / RFU LOC101060620 /// MAPK8IP1 (11723275_at) / Fold change /veh LOC101060620 /// MAPK8IP1 (11723275_at) / RFU SPTSSB (11747773_x_at) / Fold change /veh SPTSSB (11747773_x_at) / RFU PRSS12 (11739890_at) / Fold change /veh PRSS12 (11739890_at) / RFU BIN1 (11741810_x_at) / Fold change /veh BIN1 (11741810_x_at) / RFU WNT11 (11732464_a_at) / Fold change /veh WNT11 (11732464_a_at) / RFU C10orf10 (11716521_a_at) / Fold change /veh C10orf10 (11716521_a_at) / RFU C5orf56 (11738089_at) / Fold change /veh C5orf56 (11738089_at) / RFU CYB561 (11721691_x_at) / Fold change /veh CYB561 (11721691_x_at) / RFU ANKRD19P (11752326_a_at) / Fold change /veh ANKRD19P (11752326_a_at) / RFU OR2T12 /// OR2T33 /// OR2T8 (11738714_s_at) / Fold change /veh OR2T12 /// OR2T33 /// OR2T8 (11738714_s_at) / RFU VCAN (11748164_a_at) / Fold change /veh VCAN (11748164_a_at) / RFU JSRP1 (11732532_at) / Fold change /veh JSRP1 (11732532_at) / RFU KRTAP10-11 (11738290_x_at) / Fold change /veh KRTAP10-11 (11738290_x_at) / RFU MYO3A (11730013_a_at) / Fold change /veh MYO3A (11730013_a_at) / RFU EBF3 (11725865_a_at) / Fold change /veh EBF3 (11725865_a_at) / RFU CAMK2N1 (11719241_x_at) / Fold change /veh CAMK2N1 (11719241_x_at) / RFU C5orf56 (11738088_a_at) / Fold change /veh C5orf56 (11738088_a_at) / RFU OLFML3 (11715873_a_at) / Fold change /veh OLFML3 (11715873_a_at) / RFU LOC100653217 /// NTM (11731650_a_at) / Fold change /veh LOC100653217 /// NTM (11731650_a_at) / RFU MAPK11 (11762145_a_at) / Fold change /veh MAPK11 (11762145_a_at) / RFU FIZ1 (11724087_x_at) / Fold change /veh FIZ1 (11724087_x_at) / RFU OASL (11726364_x_at) / Fold change /veh OASL (11726364_x_at) / RFU SOX15 (11748057_x_at) / Fold change /veh SOX15 (11748057_x_at) / RFU CD79A (11719716_a_at) / Fold change /veh CD79A (11719716_a_at) / RFU HIST1H1D (11736915_at) / Fold change /veh HIST1H1D (11736915_at) / RFU CASKIN2 (11723855_a_at) / Fold change /veh CASKIN2 (11723855_a_at) / RFU LOC730098 (11760151_x_at) / Fold change /veh LOC730098 (11760151_x_at) / RFU OR4N2 (11742367_at) / Fold change /veh OR4N2 (11742367_at) / RFU PRRT2 (11749266_a_at) / Fold change /veh PRRT2 (11749266_a_at) / RFU SNX32 (11753110_a_at) / Fold change /veh SNX32 (11753110_a_at) / RFU CDHR5 (11726645_a_at) / Fold change /veh CDHR5 (11726645_a_at) / RFU RCAN1 (11760418_a_at) / Fold change /veh RCAN1 (11760418_a_at) / RFU FAM167A (11723789_a_at) / Fold change /veh FAM167A (11723789_a_at) / RFU FAM26E (11764081_at) / Fold change /veh FAM26E (11764081_at) / RFU ISYNA1 (11749810_s_at) / Fold change /veh ISYNA1 (11749810_s_at) / RFU ACY1 (11761880_at) / Fold change /veh ACY1 (11761880_at) / RFU 11764098_at / Fold change /veh 11764098_at / RFU SAMD14 (11745864_x_at) / Fold change /veh SAMD14 (11745864_x_at) / RFU NPB (11741838_a_at) / Fold change /veh NPB (11741838_a_at) / RFU TMPRSS6 (11731388_a_at) / Fold change /veh TMPRSS6 (11731388_a_at) / RFU KRTAP10-2 (11738614_at) / Fold change /veh KRTAP10-2 (11738614_at) / RFU ARHGAP8 /// PRR5-ARHGAP8 (11727945_x_at) / Fold change /veh ARHGAP8 /// PRR5-ARHGAP8 (11727945_x_at) / RFU KRTAP5-7 /// NADSYN1 (11734609_at) / Fold change /veh KRTAP5-7 /// NADSYN1 (11734609_at) / RFU RASL12 (11751679_a_at) / Fold change /veh RASL12 (11751679_a_at) / RFU CDKN2B (11736163_a_at) / Fold change /veh CDKN2B (11736163_a_at) / RFU PRF1 (11729649_at) / Fold change /veh PRF1 (11729649_at) / RFU, ZNF638 /// ZNF638-IT1 / Fold change vs veh, ZNF638 /// ZNF638-IT1 / RFU, PANK3 / Fold change vs veh, PANK3 / RFU, SH3YL1 / Fold change vs veh, SH3YL1 / RFU, ZEB2 / Fold change vs veh, ZEB2 / RFU, NRIP1 / Fold change vs veh, NRIP1 / RFU, PTTG1IP / Fold change vs veh, PTTG1IP / RFU, CAPN2 / Fold change vs veh, CAPN2 / RFU, MED14 / Fold change vs veh, MED14 / RFU, SNORA58 / Fold change vs veh, SNORA58 / RFU, C1orf63 / Fold change vs veh, C1orf63 / RFU, LRRFIP1 / Fold change vs veh, LRRFIP1 / RFU, NDUFAF7 / Fold change vs veh, NDUFAF7 / RFU, SLC12A2 / Fold change vs veh, SLC12A2 / RFU, IBTK / Fold change vs veh, IBTK / RFU, ESF1 / Fold change vs veh, ESF1 / Fold change vs veh, TMEM50B / RFU, TAOK1 / Fold change vs veh, TAOK1 / RFU, ACBD3 / Fold change vs veh, ACBD3 / RFU, TMA16 / Fold change vs veh, TMA16 / RFU, RWDD3 / Fold change vs veh, RWDD3 / RFU, BCAT1 / Fold change vs veh, BCAT1 / RFU, EDEM3 / Fold change vs veh, EDEM3 / RFU, TMEM33 / Fold change vs veh, TMEM33 / RFU, WDR75 / Fold change vs veh, WDR75 / RFU, AHCTF1 / Fold change vs veh, AHCTF1 / RFU, TFRC / Fold change vs veh, TFRC / RFU, ZDHHC17 / Fold change vs veh, ZDHHC17 / RFU, NOM1 / Fold change vs veh, NOM1 / RFU, ARL8B / Fold change vs veh, ARL8B / RFU, ZBTB11 / Fold change vs veh, ZBTB11 / RFU, TAMM41 / Fold change vs veh, TAMM41 / RFU, KIAA1704 /// LOC100996395 / Fold change vs veh, KIAA1704 /// LOC100996395 / RFU, ING1 / Fold change vs veh, ING1 / RFU, TRMT61B / Fold change vs veh, TRMT61B / RFU, FUBP3 / Fold change vs veh, FUBP3 / RFU, TP53 / Fold change vs veh, TP53 / RFU, TNKS2 / Fold change vs veh, TNKS2 / RFU, ZFP14 / Fold change vs veh, ZFP14 / RFU, ACTR2 / Fold change vs veh, ACTR2 / RFU, PPP3R1 / Fold change vs veh, PPP3R1 / RFU, PIK3R1 / Fold change vs veh, PIK3R1 / RFU, HNRNPA1 / Fold change vs veh, HNRNPA1 / RFU, RNF170 / Fold change vs veh, RNF170 / RFU, ZNF28 / Fold change vs veh, ZNF28 / RFU, RNGTT / Fold change vs veh, RNGTT / RFU, OGT / Fold change vs veh, OGT / RFU, BRD1 / Fold change vs veh, BRD1 / RFU, MARS / Fold change vs veh, MARS / RFU, ZNF655 / Fold change vs veh, ZNF655 / RFU, FAHD1 / Fold change vs veh, FAHD1 / RFU, BDP1 / Fold change vs veh, BDP1 / RFU, LRRCC1 / Fold change vs veh, LRRCC1 / RFU, ARID1A / Fold change vs veh, ARID1A / RFU, ZNF146 / Fold change vs veh, ZNF146 / RFU, ZNF330 / Fold change vs veh, ZNF330 / RFU, GPN3 / Fold change vs veh, GPN3 / RFU, C9orf123 / Fold change vs veh, C9orf123 / RFU, N4BP2L2 / Fold change vs veh, N4BP2L2 / RFU, ARFIP1 / Fold change vs veh, ARFIP1 / RFU, FAM179B / Fold change vs veh, FAM179B / RFU, BCL10 / Fold change vs veh, BCL10 / RFU, UHRF1BP1L / Fold change vs veh, UHRF1BP1L / RFU, BET1 / Fold change vs veh, BET1 / RFU, CNOT2 / Fold change vs veh, CNOT2 / RFU, ZNF268 / Fold change vs veh, ZNF268 / Fold change vs veh, ZNF507 / RFU, DGCR2 / Fold change vs veh, DGCR2 / RFU, WDSUB1 / Fold change vs veh, WDSUB1 / Fold change vs veh, HSP90B1 /// MIR3652 / RFU, ADSS / Fold change vs veh, ADSS / RFU, GK / Fold change vs veh, GK / RFU, ZNF148 / Fold change vs veh, ZNF148 / RFU, TAF9 / Fold change vs veh, TAF9 / RFU, SLC1A5 / Fold change vs veh, SLC1A5 / RFU, SLMO2 / Fold change vs veh, SLMO2 / RFU, ABCC4 / Fold change vs veh, ABCC4 / RFU, LOC101060439 /// RAP1B / Fold change vs veh, LOC101060439 /// RAP1B / RFU, RFX7 / Fold change vs veh, RFX7 / RFU, GTPBP10 / Fold change vs veh, GTPBP10 / RFU, CNEP1R1 / Fold change vs veh, CNEP1R1 / RFU, BIVM-ERCC5 /// ERCC5 / Fold change vs veh, BIVM-ERCC5 /// ERCC5 / RFU, ILF3 / Fold change vs veh, ILF3 / RFU 11762660_at / Fold change /veh 11762660_at / RFU VCAN (11757783_s_at) / Fold change /veh VCAN (11757783_s_at) / RFU DDX43 (11728927_at) / Fold change /veh DDX43 (11728927_at) / RFU KRT8 (11758188_x_at) / Fold change /veh KRT8 (11758188_x_at) / RFU NKD1 (11759106_at) / Fold change /veh NKD1 (11759106_at) / RFU SRD5A1 (11742802_a_at) / Fold change /veh SRD5A1 (11742802_a_at) / RFU TPSAB1 /// TPSB2 (11721975_s_at) / Fold change /veh TPSAB1 /// TPSB2 (11721975_s_at) / RFU GSTM3 (11746129_a_at) / Fold change /veh GSTM3 (11746129_a_at) / RFU IL23R (11737362_x_at) / Fold change /veh IL23R (11737362_x_at) / RFU TMEM51 (11727254_a_at) / Fold change /veh TMEM51 (11727254_a_at) / RFU PIWIL2 (11732686_x_at) / Fold change /veh PIWIL2 (11732686_x_at) / RFU ORM1 (11744905_x_at) / Fold change /veh ORM1 (11744905_x_at) / RFU CCDC152 (11743942_at) / Fold change /veh CCDC152 (11743942_at) / RFU ECM1 (11717891_a_at) / Fold change /veh ECM1 (11717891_a_at) / RFU IL23R (11748794_a_at) / Fold change /veh IL23R (11748794_a_at) / RFU TNFAIP8L3 (11732012_x_at) / Fold change /veh TNFAIP8L3 (11732012_x_at) / RFU MBOAT4 (11741988_at) / Fold change /veh MBOAT4 (11741988_at) / RFU 11764193_at / Fold change /veh 11764193_at / RFU TMEM53 (11763286_at) / Fold change /veh TMEM53 (11763286_at) / RFU MAGEB2 (11727129_at) / Fold change /veh MAGEB2 (11727129_at) / RFU TMEM200A (11744735_a_at) / Fold change /veh TMEM200A (11744735_a_at) / RFU CCDC152 (11751479_a_at) / Fold change /veh CCDC152 (11751479_a_at) / RFU FAM211A (11726209_a_at) / Fold change /veh FAM211A (11726209_a_at) / RFU RGS16 (11746705_a_at) / Fold change /veh RGS16 (11746705_a_at) / RFU VCAN (11755009_s_at) / Fold change /veh VCAN (11755009_s_at) / RFU RHOB (11743442_s_at) / Fold change /veh RHOB (11743442_s_at) / RFU RGS16 (11720943_a_at) / Fold change /veh RGS16 (11720943_a_at) / RFU RGS16 (11720944_at) / Fold change /veh RGS16 (11720944_at) / RFU, VPS4B / Fold change vs veh, VPS4B / RFU, CREB1 / Fold change vs veh, CREB1 / RFU, DNAJC13 / Fold change vs veh, DNAJC13 / RFU, GNAQ / Fold change vs veh, GNAQ / RFU, CDK5R1 / Fold change vs veh, CDK5R1 / RFU, ZRANB3 / Fold change vs veh, ZRANB3 / RFU, CUL4A / Fold change vs veh, CUL4A / RFU, CCNY / Fold change vs veh, CCNY / RFU, UFL1 / Fold change vs veh, UFL1 / RFU, COG3 / Fold change vs veh, COG3 / RFU, DIAPH2 / Fold change vs veh, DIAPH2 / RFU, SKA2 / Fold change vs veh, SKA2 / RFU, AFF3 / Fold change vs veh, AFF3 / RFU, LMF1 / Fold change vs veh, LMF1 / RFU, IPO11 / Fold change vs veh, IPO11 / RFU, DFFB / Fold change vs veh, DFFB / RFU, FOXP1 / Fold change vs veh, FOXP1 / RFU, CARD8 / Fold change vs veh, CARD8 / RFU, STRN3 / Fold change vs veh, STRN3 / RFU, ADK / Fold change vs veh, ADK / RFU, RASSF2 / Fold change vs veh, RASSF2 / RFU, WIPF1 / Fold change vs veh, WIPF1 / RFU, LARP1B / Fold change vs veh, LARP1B / RFU, RASA1 / Fold change vs veh, RASA1 / RFU, RB1 / Fold change vs veh, RB1 / RFU, PPFIA1 / Fold change vs veh, PPFIA1 / RFU, MAT2A / Fold change vs veh, MAT2A / RFU, CCT5 / Fold change vs veh, CCT5 / RFU, WDR92 / Fold change vs veh, WDR92 / RFU, CUX1 / Fold change vs veh, CUX1 / RFU, TTC7A / Fold change vs veh, TTC7A / RFU, TMEM135 / Fold change vs veh, TMEM135 / RFU, DEPTOR / Fold change vs veh, DEPTOR / RFU, CPM / Fold change vs veh, CPM / RFU, DNAJB6 / Fold change vs veh, DNAJB6 / RFU, CACNA2D3 / Fold change vs veh, CACNA2D3 / RFU, DTX4 / Fold change vs veh, DTX4 / RFU, TFCP2 / Fold change vs veh, TFCP2 / RFU, GMCL1 /// GMCL1P1 / Fold change vs veh, GMCL1 /// GMCL1P1 / RFU, AEBP2 / Fold change vs veh, AEBP2 / RFU, SNHG1 /// SNORD22 /// SNORD25 /// SNORD26 /// SNORD27 /// SNORD28 /// SNORD29 /// SNORD31 / Fold change vs veh, SNHG1 /// SNORD22 /// SNORD25 /// SNORD26 /// SNORD27 /// SNORD28 /// SNORD29 /// SNORD31 / Fold change (Aza/veh), C12orf56 (ProbeSet 11735607_a_at) / Fold change (ACY-1035/veh), C12orf56 (ProbeSet 11735607_a_at) / Fold change (Aza/veh), FGFR1OP (ProbeSet 11751329_s_at) / Fold change (ACY-1035/veh), FGFR1OP (ProbeSet 11751329_s_at) / Fold change (Aza/veh), VPS36 (ProbeSet 11739960_a_at) / Fold change (ACY-1035/veh), VPS36 (ProbeSet 11739960_a_at) / RFU SYPL1 (11715823_x_at) / Fold change /veh SYPL1 (11715823_x_at) / RFU IGFBP7 (11715501_s_at) / Fold change /veh IGFBP7 (11715501_s_at) / RFU REEP3 (11722064_at) / Fold change /veh REEP3 (11722064_at) / RFU IGLL1 (11728026_x_at) / Fold change /veh IGLL1 (11728026_x_at): dose or concentration left out as unconfirmed", "settings": "MV-4-11 cells, 48 hours", "data": [{"smiles": "Nc1ncn([C@@H]2O[C@H](CO)[C@@H](O)[C@H]2O)c(=O)n1", "note": "[azacitidine]", "values": [{"measurement": "RFU SOX15 (11748057_x_at)", "value": 12.99, "unit": "RFU"}]}]}
